Experiments:
HEP2 = assay: CellTiter-Blue cell-based survival/proliferation assay, HEP2; details: Homo sapiens, HEp-2; HEP2 head & neck tumor cell line, 48 h
Procedure, shortened: (§1)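 Tenfold compound dilutions (0–10 μM) were added to 1·10^4 cells/well. Plates incubated 48 h at 37 °C. CellTiter-Blue reduction (4 h, 37 °C) was read as fluorescence at 590 nm, background-corrected with a cell-free blank.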

A4513 = assay: CellTiter-Blue cell-based survival/proliferation assay, A4513; details: Homo sapiens; A4513 Ewing cell line, 48 h
Procedure: (§2) Cell-Based Proliferation Screening of Compounds
(§3) CellTiter-Blue cell-based survival/proliferation assay (Promega G8080) was performed on tumor cell lines. A total of 1·10^4 cells/well/50 μl were seeded in a 96-wells plate. Treatment was initiated by addition of a 2× drug solution of 1/10 serial dilutions ranging from 0 to 10 μM. Cells were grown for 48 h at 37° C. and then incubated with 10 μl/well of Promega CellTiter-Bleue reagent for 4 h at 37° C. The amount of resorufin dye formed was quantified by its fluorescence emission at 590 nm using a scanning multiwell spectrophotometer (OPTIMA, BMG labtech, France). A blank well without cells was used as a background control for the spectrophotometer.

HEPG2 = assay: CellTiter-Blue cell-based survival/proliferation assay, HEPG2; details: Homo sapiens; HEPG2 liver tumor cell line, 48 h
Procedure, shortened: as §1

DLD1 = assay: CellTiter-Blue cell-based survival/proliferation assay, DLD1; details: Homo sapiens, DLD-1; DLD_1 colorectal tumor cell line, 48 h
Procedure, shortened: as §1

H1299 = assay: CellTiter-Blue cell-based survival/proliferation assay, H1299; details: Homo sapiens, NCI-H1299; H1299 lung tumor cell line, 48 h
Procedure, shortened: as §1

A549 = assay: CellTiter-Blue cell-based survival/proliferation assay, A549; details: Homo sapiens; A549 lung tumor cell line, 48 h
Procedure, shortened: as §1

HGC27 = assay: CellTiter-Blue cell-based survival/proliferation assay, HGC27; details: Homo sapiens, HGC-27; HGC27 stomach tumor cell line, 48 h
Procedure, shortened: as §1

DU145 = assay: CellTiter-Blue cell-based survival/proliferation assay, DU145; details: Homo sapiens, DU-145; DU145 prostate tumor cell line, 48 h
Procedure, shortened: as §1

PANC1 = assay: CellTiter-Blue cell-based survival/proliferation assay, PANC1; details: Homo sapiens, PANC-1; PANC_1 pancreas tumor cell line, 48 h
Procedure, shortened: as §1

SW579 = assay: CellTiter-Blue cell-based survival/proliferation assay, SW579; details: Homo sapiens; SW579 head & neck tumor cell line, 48 h
Procedure, shortened: as §1

REC1 = assay: CellTiter-Blue cell-based survival/proliferation assay, REC1; details: Homo sapiens, Lymphoma cell line REC1, 48 h, read-out: Anti-tumoral activity (measured IC50) REC1
Procedure, shortened: as §1

MELWO = assay: CellTiter-Blue cell-based survival/proliferation assay, MELWO; details: Homo sapiens; MEL_WO melanoma cell line, 48 h
Procedure: as §2, §3

CALU6 = assay: CellTiter-Blue cell-based survival/proliferation assay, CALU6; details: Homo sapiens, Calu-6; CALU6 lung tumor cell line, 48 h
Procedure, shortened: as §1

ACHN = assay: CellTiter-Blue cell-based survival/proliferation assay, ACHN; details: Homo sapiens; ACHN kidney tumor cell line, 48 h
Procedure, shortened: as §1

PC3 = assay: CellTiter-Blue cell-based survival/proliferation assay, PC3; details: Homo sapiens, PC-3; PC3 prostate tumor cell line, 48 h
Procedure, shortened: as §1

BT20 = assay: CellTiter-Blue cell-based survival/proliferation assay, BT20; details: Homo sapiens, BT-20; BT20 breast tumor cell line, 48 h
Procedure, shortened: as §1

HUT78 = assay: CellTiter-Blue cell-based survival/proliferation assay, HUT78; details: Homo sapiens, Lymphoma cell line HUT78, 48 h, read-out: Anti-tumoral activity (measured IC50) HUT78
Procedure, shortened: as §1

HCT116 = assay: CellTiter-Blue cell-based survival/proliferation assay, HCT116; details: Homo sapiens, HCT-116; HCT116 colorectal tumor cell line, 48 h
Procedure, shortened: as §1

U87MG = assay: CellTiter-Blue cell-based survival/proliferation assay, U87MG; details: Homo sapiens, U-87 MG; U87_MG glioblastoma cell line, 48 h
Procedure: as §2, §3

BXPC3 = assay: CellTiter-Blue cell-based survival/proliferation assay, BXPC3; details: Homo sapiens, BXPC-3; BXPC3 pancreas tumor cell line, 48 h
Procedure, shortened: as §1

CLS354 = assay: CellTiter-Blue cell-based survival/proliferation assay, CLS354; details: Homo sapiens, CLS-354; CLS354_4 head & neck tumor cell line, 48 h
Procedure, shortened: as §1

HL60 = assay: CellTiter-Blue cell-based survival/proliferation assay, HL60; details: Homo sapiens, HL-60, Leukemia cell line HL60, 48 h, read-out: Anti-tumoral activity (measured IC50) HL60
Procedure, shortened: as §1

TOV112D = assay: CellTiter-Blue cell-based survival/proliferation assay, TOV112D; details: Homo sapiens; TOV112D ovary tumor cell line, 48 h
Procedure, shortened: as §1

U2OS = assay: CellTiter-Blue cell-based survival/proliferation assay, U2OS; details: Homo sapiens; U2OS osteosarcoma cell line, 48 h
Procedure: as §2, §3

OPM2 = assay: CellTiter-Blue cell-based survival/proliferation assay, OPM2; details: Homo sapiens, OPM-2, Myeloma cell line OPM2, 48 h, read-out: Anti-tumoral activity (measured IC50) OPM2
Procedure, shortened: as §1

PLCPRF5 = assay: CellTiter-Blue cell-based survival/proliferation assay, PLCPRF5; details: Homo sapiens, PLC-PRF-5; PLC_PRF5 liver tumor cell line, 48 h
Procedure, shortened: as §1

MESSA = assay: CellTiter-Blue cell-based survival/proliferation assay, MESSA; details: Homo sapiens, MES-SA; MESSA ovary tumor cell line, 48 h
Procedure, shortened: as §1

A375 = assay: CellTiter-Blue cell-based survival/proliferation assay, A375; details: Homo sapiens, A-375; A375 melanoma cell line, 48 h
Procedure: as §2, §3

KARPAS299 = assay: CellTiter-Blue cell-based survival/proliferation assay, KARPAS299; details: Homo sapiens, KARPAS-299, Lymphoma cell line KARPAS299, 48 h, read-out: Anti-tumoral activity (measured IC50) KARPAS299
Procedure, shortened: as §1

AGS = assay: CellTiter-Blue cell-based survival/proliferation assay, AGS; details: Homo sapiens; AGS stomach tumor cell line, 48 h
Procedure, shortened: as §1

U118 = assay: CellTiter-Blue cell-based survival/proliferation assay, U118; details: Homo sapiens; U118 glioblastoma cell line, 48 h
Procedure: as §2, §3

MDAMB231 = assay: CellTiter-Blue cell-based survival/proliferation assay, MDAMB231; details: Homo sapiens, MDA-MB-231; MDAMB231 breast tumor cell line, 48 h
Procedure, shortened: as §1

A498 = assay: CellTiter-Blue cell-based survival/proliferation assay, A498; details: Homo sapiens; A498 kidney tumor cell line, 48 h
Procedure, shortened: as §1

Structure (SMILES): COc1ccc(C)c(Nc2ncc(-c3ccc(-n4cccn4)cc3)s2)c1 [Example 011, (5-Methoxy-2-methyl-phenyl)-[5-(4-pyrazol-1-yl-phenyl)-thiazol-2-yl]-amine]
- IC50 (HEP2): > 1000 nM
- IC50 (A4513): > 1000 nM
- IC50 (HEPG2): > 1000 nM
- IC50 (DLD1): > 1000 nM
- IC50 (H1299): > 1000 nM
- IC50 (A549): > 1000 nM
- IC50 (HGC27): > 1000 nM
- IC50 (DU145): > 1000 nM
- IC50 (PANC1): > 1000 nM
- IC50 (SW579): > 1000 nM
- IC50 (REC1): > 1000 nM
- IC50 (MELWO): > 1000 nM
- IC50 (CALU6): > 1000 nM
- IC50 (ACHN): > 1000 nM
- IC50 (PC3): > 1000 nM
- IC50 (BT20): > 1000 nM
- IC50 (HUT78): > 1000 nM
- IC50 (HCT116): > 1000 nM
- IC50 (U87MG): > 1000 nM
- IC50 (BXPC3): > 1000 nM
- IC50 (CLS354): > 1000 nM
- IC50 (HL60): > 1000 nM
- IC50 (TOV112D): > 1000 nM
- IC50 (U2OS): > 1000 nM
- IC50 (OPM2): > 1000 nM
- IC50 (PLCPRF5): > 1000 nM
- IC50 (MESSA): > 1000 nM
- IC50 (A375): > 1000 nM
- IC50 (KARPAS299): > 1000 nM
- IC50 (AGS): > 1000 nM
- IC50 (U118): > 1000 nM
- IC50 (MDAMB231): > 1000 nM
- IC50 (A498): > 1000 nM

Structure (SMILES): COc1ccc(C)c(Nc2ncc(-c3ccc(N4CCNC4=O)cc3)s2)c1 [Example 013, 1-{4-[2-(5-Methoxy-2-methyl-phenylamino)-thiazol-5-yl]-phenyl}-imidazolidin-2-one]
- IC50 (HEP2): > 1000 nM
- IC50 (A4513): 100 to 500 nM
- IC50 (HEPG2): > 1000 nM
- IC50 (DLD1): > 1000 nM
- IC50 (H1299): > 1000 nM
- IC50 (A549): > 1000 nM
- IC50 (HGC27): > 1000 nM
- IC50 (DU145): > 1000 nM
- IC50 (PANC1): > 1000 nM
- IC50 (SW579): > 1000 nM
- IC50 (REC1): 500 to 1000 nM
- IC50 (MELWO): > 1000 nM
- IC50 (CALU6): > 1000 nM
- IC50 (ACHN): > 1000 nM
- IC50 (PC3): 500 to 1000 nM
- IC50 (BT20): > 1000 nM
- IC50 (HUT78): 500 to 1000 nM
- IC50 (HCT116): > 1000 nM
- IC50 (U87MG): > 1000 nM
- IC50 (BXPC3): > 1000 nM
- IC50 (CLS354): > 1000 nM
- IC50 (HL60): 100 to 500 nM
- IC50 (TOV112D): > 1000 nM
- IC50 (U2OS): > 1000 nM
- IC50 (OPM2): 100 to 500 nM
- IC50 (PLCPRF5): > 1000 nM
- IC50 (MESSA): > 1000 nM
- IC50 (A375): > 1000 nM
- IC50 (KARPAS299): 500 to 1000 nM
- IC50 (AGS): > 1000 nM
- IC50 (U118): > 1000 nM
- IC50 (MDAMB231): > 1000 nM
- IC50 (A498): > 1000 nM

Structure (SMILES): CCOCc1ccc(C)c(Nc2ncc(-c3ccc(N4CCNC4=O)cc3)s2)c1 [Example 014, 1-{4-[2-(5-Ethoxymethyl-(2-methyl-phenylamino))-thiazol-5-yl]-phenyl}-imidazolidin-2-one]
- IC50 (HEP2): > 1000 nM
- IC50 (A4513): 500 to 1000 nM
- IC50 (HEPG2): > 1000 nM
- IC50 (DLD1): > 1000 nM
- IC50 (H1299): > 1000 nM
- IC50 (A549): > 1000 nM
- IC50 (HGC27): > 1000 nM
- IC50 (DU145): > 1000 nM
- IC50 (PANC1): > 1000 nM
- IC50 (SW579): > 1000 nM
- IC50 (REC1): > 1000 nM
- IC50 (MELWO): > 1000 nM
- IC50 (CALU6): > 1000 nM
- IC50 (ACHN): > 1000 nM
- IC50 (PC3): > 1000 nM
- IC50 (BT20): > 1000 nM
- IC50 (HUT78): > 1000 nM
- IC50 (HCT116): > 1000 nM
- IC50 (U87MG): > 1000 nM
- IC50 (BXPC3): > 1000 nM
- IC50 (CLS354): > 1000 nM
- IC50 (HL60): > 1000 nM
- IC50 (TOV112D): > 1000 nM
- IC50 (U2OS): > 1000 nM
- IC50 (OPM2): > 1000 nM
- IC50 (PLCPRF5): > 1000 nM
- IC50 (MESSA): > 1000 nM
- IC50 (A375): > 1000 nM
- IC50 (KARPAS299): 100 to 500 nM
- IC50 (AGS): > 1000 nM
- IC50 (U118): > 1000 nM
- IC50 (MDAMB231): > 1000 nM
- IC50 (A498): > 1000 nM

From patent US10570122B2, “Compounds with anti-tumoral activity” (AB Science, priority 2015, dated 2020)
